Results taken from patent publication US5808109A, “Compounds that inhibit complement and/or suppress immune activity” (T Cell Sciences, Inc., priority 1995, dated 1998).
pIC50: −log10 of the molar value. Counter-ions that a name gives are not always drawn. Like-named read-outs stand apart in the source and are kept apart here. Each block holds one compound with its values, some of them ahead of it.

Legend:
[1] = test system: human complement; assay: Inhibition of complement-mediated hemolysis, human serum, sensitized sheep erythrocytes; assay type: biochemical
Description: The ability to inhibit complement was also tested by assaying for inhibition of complement-mediated red cell lysis (hemolysis). The inhibition of hemolysis was determined as a function of compound concentration. The compounds to be tested were diluted in 0.1M Hepes buffer (0.15N NaCl, pH 7.4), and 50 μl were added to each well of a V-bottom microtiter plate. Human serum, used as the complement source, was diluted 1 to 500 in Hepes buffer, and 50 μl were added to each well. Next, commercially available sheep erythrocytes with anti-sheep antibody (Diamedix Cat. No. 789-001) were used as received and added at 100 μl/well to initiate the complement pathway leading to hemolysis. The plate was incubated for 60 minutes at 37° C. and then centrifuged at 500×g for 10 minutes. The supernatants were removed and placed in a flat-bottom microtiter plate. The extent of hemolysis was measured as a function of the sample absorbance at 410 nm. The maximal absorbance (corresponding to maximal hemolysis), Amax, was obtained from the absorbance value of an erythrocyte sample containing only human serum, AS, less the absorbance of a sample containing only the red cells, A0. Thus, Amax =AS -A0. The difference between the absorbance of an erythrocyte sample containing both human serum and inhibitive compound, and the absorbance of a cell sample containing inhibitive compound only, was defined as Asample. The inhibition, IH, was expressed as the fraction (Amax -Asample)/Amax, and IH50 was defined as the concentration of inhibitive compound required to produce a value of IH=1/2.
The 4 substituted spirobenzofuran compounds of example 7 and the disubstituted spirobenzofuran compounds of example 8 were tested for their capacity to inhibit complement-mediated lysis of sheep red blood cells (SRBC) as described in Section 6.6.2 supra with the modification that the human serum used as the complement source was diluted to 1 to 100 in Hepes buffer, instead of […]. The results of the hemolysis assays are shown in FIG. 8 and Tables XI and XII.

[2] = test system: C5a production; assay: Inhibition of C5a production in human serum (aggregated IgG, RIA); assay type: biochemical; conditions: concentration inhibiting C5a production 50% relative to control
Description: (§1) The ability to inhibit complement was tested by assaying for specific inhibition of C3a and C5a production. For all experiments, a single human serum pool, to be used as a source of complement, was aliquoted and stored frozen at -70° C. Human IgG was heat-aggregated, aliquoted, and stored frozen at -70° C. For each experiment, serum aliquots were equilibrated at 37° C. with varying concentrations of the compounds tested. The classical complement pathway was initiated by the addition of aggregated human IgG. Control samples containing no IgG were always included. After a fixed reaction time of 10 minutes (determined in an earlier time-course study to provide a convenient time interval during which the production of C5a or C3a is nearly complete, i.e., greater than 90%), the levels of the released complement peptides (C5a or C3a) were determined by radioimmunoassay using commercially available radioimmunoassay (RIA) kits (C5a RIA, UpJohn Cat. No. 3250-02; C3a RIA, UpJohn Cat. No. 3245-01; C5a RIA, Amersham Cat. No. RPA.520; C3a RIA, Amersham RPA.518).
(§2) Since a competitive immunoassay was used, complement peptide (C5a and C3a) concentrations varied inversely with the counts. The Counts Bound (CB) for a sample was defined as the total counts (in counts per minute, cpm) measured in the pellet minus the counts measured in a nonspecific binding (NSB) control. The NSB control was a sample containing only tracer peptide (^125 I-labelled) and second precipitating antiserum; it contained no C5a- or C3a-specific antiserum.
(§3) The y-axis in FIG. 2 represents the fraction inhibition. The fraction inhibition is equal to the Counts Bound (CB) for a "sample," less the CB in the "sample with no added compound," divided by the CB for the "no IgG control" less the CB in the "sample with no added compound." [formula]
(§4) FIG. 2 is representative of the data plots obtained from the assays described above.

[3] = test system: C3a production; assay: Inhibition of C3a production in human serum (aggregated IgG, RIA); assay type: biochemical; conditions: human serum, concentration inhibiting C3a production 50% relative to control
Description: as §1, §2, §3, §4

[4] = test system: human peripheral blood lymphocytes (PBL); assay: Inhibition of proliferation of peripheral blood lymphocytes, 3H-thymidine incorporation; assay type: cell-based; conditions: Lymphocyte, Table IX, 72 h
Description: The proliferation of human peripheral blood lymphocytes (PBL) in response to phytohemagglutinin (PHA, Well-come) or anti-CD3 monoclonal antibody (OKT-3, Ortho) was assessed by the incorporation of ^3 H-thymidine. Compound 11a was diluted in culture media to the desired concentrations, human PBL were added to a final concentration of 10^6 cells/ml, and then either PHA (Wellcome) or anti-CD3 (OKT3, Ortho) antibody (final concentration, […]) was added to initiate proliferation. The final volume per sample was 100 μl. The cells were incubated for 72 hours after stimulation, pulsed with 1 μCi ^3 H-thymidine per sample for 4 hours, harvested, and counted in a scintillation counter. […] Because cell viability was unaffected by the presence of 11a (see supra), the inhibition apparently was not due to cytotoxic effects.

[5] = target: T1, factor I (Homo sapiens, UniProt P05156); assay: Inhibition of C3b proteolysis by factor I (SDS-PAGE densitometry); assay type: biochemical; conditions: sCR1 8 nM as cofactor, C3b 1.2 μM, factor I 0.1 μM, 60 min 37° C.; read-out: C3b cleavage by Factor I, concentration yielding 50% inhibition
T1 construct: purchased Cytotech, San Diego, Calif
T1 sequence (P05156 340-583 limits assumed): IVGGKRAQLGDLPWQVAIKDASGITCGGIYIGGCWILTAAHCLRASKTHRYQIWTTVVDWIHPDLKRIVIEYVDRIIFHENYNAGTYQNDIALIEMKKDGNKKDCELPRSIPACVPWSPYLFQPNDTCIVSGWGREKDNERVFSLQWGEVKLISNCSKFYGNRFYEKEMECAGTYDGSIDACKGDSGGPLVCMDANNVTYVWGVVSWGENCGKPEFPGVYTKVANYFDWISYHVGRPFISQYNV
Excerpt: The reactions were stopped by the addition of reducing SDS-PAGE sample buffer (Laemmli, 1970, Nature, 227:680-685) subjected to electrophoresis on 4-20% polyacrylamide gradient gels, visualized with Coomassie Blue stain, and quantitated by densitometry. Controls lacking factor I and controls with factor I but lacking test compounds were included. Results are reported as the concentration of test compound which inhibited approximately fifty percent (50%) of the C3b a-chain degradation, IC50.

[6] = test system: alternative complement pathway; assay: Inhibition of alternative pathway mediated hemolysis, rabbit erythrocytes, human serum; assay type: biochemical; conditions: Table XIV, human serum 1 in 24, read-out: Alternative pathway AH50
Description: The capacity of the substituted dihydrobenzofurans to inhibit the alternative complement pathway was assessed using the modified method of Platts-Mills and Ishizaka, 1974, J. Immunol., 113:348-358. Essentially, rabbit erythrocytes were lysed using human serum as complement in gelatin veronal buffer (GVB, Sigma, St. Louis, Mo.) with added EGTA (ethylene glycol-bis[β-aminoethyl ether]N,N,N^1,N^1 -tetraacetic acid) and Mg^2+ to 8 mM and 2 mM, respectively. Rabbit erythrocytes (4.5×10^6 cells/ml), human serum (1 in 24 dilution), and the compounds to be tested were incubated one hour at 37° C. in a V-bottom microtiter plate, cells pelleted by centrifugation, the supernatants transferred to a flat-bottom microtiter plate, and the absorbance at 410 nm determined. Samples were paired with identical controls lacking human serum (complement-independent lysis). Both samples and controls were run in triplicate. Control values were subtracted from sample values and the fractional inhibition was determined relative to the uninhibited (no added compound) sample. Results are reported as the concentration of compound yielding fifty per cent (50%) inhibition, AH50. The AH50 values for several of the compounds are included along with the results of other in vitro assays in Table XIV.

[7] = Table VII, human serum, read-out: IHO50
[8] = PHA stimulation, read-out: IP50 PHA-stimulated PBL
[9] = anti-CD3 (OKT-3) stimulation, read-out: IP50 OKT-3-stimulated PBL
[10] = Table XII, human serum diluted 1 to 100, read-out: IH50 Mean
[11] = Table XI, human serum diluted 1 to 100, read-out: IH50 Mean

- pIC50 [2]: 2.10
- pIC50 [3]: 1.89
SMILES: COc1ccc(C(=O)O)c(O)c1CC1=CCCCC1 [Compound 12a, 3-(1'-CYCLOHEXENYL)METHYL-2-HYDROXY-4-METHOXYBENZOIC ACID]
- pIC50 [1, 7]: 2.68

SMILES: COc1cc(C(=O)O)cc(O)c1CC1=CCCCC1 [Compound 15a]
- pIC50 [4, 8]: 3.15
- pIC50 [4, 9]: 3.40
- pIC50 [1, 7]: 3.09

- pIC50 [2]: 2.10
- pIC50 [3]: < 1.85
SMILES: COc1ccc(C(=O)O)c2c1CC(C)(C1CC=C(C)CC1)O2 (single isomer, unassigned; (+)) [(+)-20a]
- pIC50 [4, 8]: 2.68
- pIC50 [4, 9]: 2.77
- pIC50 [1, 7]: 3.17

SMILES: O=C(O)c1ccc2c(c1)OC1(CCCCC1)C2 [Compound 55g, 6-CARBOXYLSPIRO[BENZOFURAN-2(3H)-CYCLOHEXANE]]
- pIC50 [1, 10]: 2.63

SMILES: O=C(O)c1cc(Oc2ccc([N+](=O)[O-])cc2)c2c(c1)OC1(CCCCC1)C2 [Compound 55e, 6-CARBOXYL-4-P-NITROPHENOXYSPIRO [BENZOFURAN-2(3H)-CYCLOHEXANE]]
- effectiveness in inhibiting complement-mediated hemolysis compared with K76COOH [1]: more effective
- pIC50 [1, 10]: 3.52

- pIC50 [2]: < 1.85
- pIC50 [3]: < 1.85
SMILES: CC1=CCC(C2(C)Cc3c(O)ccc(C(=O)O)c3O2)CC1 (single isomer, unassigned; (+)) [(+)-23a]
- pIC50 [1, 7]: 2.68

SMILES: COc1cc(C(=O)O)c(C(=O)O)c2c1CC1(CCCCC1)O2 [Compound 66, 6,7-DICARBOXYL-4-METHOXYSPIRO [BENZOFURAN-2(3H)-CYCLOHEXANE]]
- pIC50 [1, 11]: 3.10

SMILES: O=C(O)c1cc(OCCO)c2c(c1)OC1(CCCCC1)C2 [Compound 55d, 6-CARBOXYL-4-(2'-HYDROXYETHYLOXYSPIRO[BENZOFURAN-2(3H)-CYCLOHEXANE]]
- pIC50 [1, 10]: < 2.55

- pIC50 [2]: 2.05
- pIC50 [3]: 1.74
SMILES: COc1ccc(C=O)c(O)c1CC1=CCCCC1 [Compound 12b, 3-(1'-CYCLOHEXENYL)METHYL-2-HYDROXY-4-METHOXYBENZALDEHYDE]

SMILES: COc1cc(C(=O)O)cc2c1CC1(CCCCC1)O2 [Compound 30a]
- pIC50 [1, 7]: 3.28

SMILES: CCCCOc1cc(C(=O)O)cc2c1CC1(CCCCC1)O2 [Compound 55b, 4-N-BUTYLOXY-6-CARBOXYLSPIRO[BENZOFURAN-2(3H)-CYCLOHEXANE]]
- pIC50 [1, 10]: 3.37

SMILES: O=C(O)c1ccc(Oc2cc(C(=O)O)cc3c2CC2(CCCCC2)O3)cc1 [Compound 55i, 6-CARBOXYL-4-P-CARBOXYLPHENOXYSPIRO[BENZOFURAN-2(3H)-CYCLOHEXANE]]
- pIC50 [1, 10]: 2.84

SMILES: COc1cc(C=O)c(C(=O)O)c2c1CC1(CCCCC1)O2 [Compound 62, 7-CARBOXY-6-FORMYL-4-METHOXY PIRO[BENXOFURAN-2 (DH)-CYCLOHEXANE]
- pIC50 [1, 11]: 2.78

SMILES: CC1=CCC(C2(C)Cc3c(O)ccc(C(=O)O)c3O2)CC1 (single isomer, unassigned; (-)) [(-)-23a]
- pIC50 [4, 8]: 2.55
- pIC50 [4, 9]: 2.70
- pIC50 [1, 7]: 2.62

- pIC50 [5]: 3.96
SMILES: CC1CCC2C(C)(C)C(O)C(O)CC2(C)C12Cc1c(O)cc(C(=O)O)c(C=O)c1O2 (stereo not drawn) [K76COOH, reference compound]
- pIC50 [6]: 3.07
- pIC50 [1, 11]: 3.24
- pIC50 [1, 10]: 3.24
- pIC50 ([1]; Table XIV, read-out: Classical pathway IH50): 3.24

SMILES: O=C(O)c1ccc(O)c2c1OC1(CCCCC1)C2 [Compound 14a]
- pIC50 [1, 7]: 2.52

SMILES: CCOc1cc(C(=O)O)cc2c1CC1(CCCCC1)O2 [Compound 44b, 6-CARBOXYLATE-4-ETHOXY-SPIRO [BENZOFURAN-2(3H)-CYCLOHEXANE] SODIUM SALT]
- pIC50 [1, 10]: 3.24

SMILES: O=C(O)c1cc(O)c2c(c1)OC1(CCCCC1)C2 [Compound 31a]
- pIC50 [1, 7]: 2.84
- pIC50 [1, 10]: 2.84

SMILES: O=C(O)c1cc(Oc2ccccc2)c2c(c1)OC1(CCCCC1)C2 [Compound 55c, 6-CARBOXYL-4-PHENOXYSPIRO[BENZOFURAN-2(3H)-CYCLOHEXANE]]
- effectiveness in inhibiting complement-mediated hemolysis compared with K76COOH [1]: more effective
- pIC50 [1, 10]: 3.55

- pIC50 [2]: 2.22
- pIC50 [3]: 1.96
SMILES: COc1ccc(C(=O)O)c2c1CC(C)(C1CC=C(C)CC1)O2 (single isomer, unassigned; (-)) [(-)-20a]
- pIC50 [1, 7]: 3.42

SMILES: O=C(O)c1cc(OCc2ccccc2)c2c(c1)OC1(CCCCC1)C2 [Compound 55a, 4-BENZYLOXY-6-CARBOXYLSPIRO[BENZOFURAN-2(3H)-CYCLOHEXANE]]
- pIC50 [1, 10]: 2.60

SMILES: Nc1ccc(Oc2cc(C(=O)O)cc3c2CC2(CCCCC2)O3)cc1 [Compound 55h, 4p-aminophenoxy-carboxyspiro[benzofuran2(3H)-cyclohexane]
- effectiveness in inhibiting complement-mediated hemolysis compared with K76COOH [1]: more effective
- pIC50 [1, 10]: 3.49
